Experimental data taken from article PMC11489721 (Communications Chemistry, 2024).
Counter-ions that a name gives are not always drawn. Like-named read-outs stand apart in the source and are kept apart here. Blank lines part the entries; values can stand above or below the compound they belong to.

Columns and labels:
[1] = target: extracellular amino-terminal domain (ATD) of human T1R2; settings: circular dichroism; cited from earlier work
[2] = target: T1, heterodimeric receptor (T1R2/T1R3), TMD3 binding site (Homo sapiens, UniProt Q7RTX0+Q8TE23); test: Competition binding with [3H]-lactisole as radioligand; settings: for Competitive inhibition with lactisole: radioligand [3H]-lactisole
T1 sequence (Q8TE23 20-839): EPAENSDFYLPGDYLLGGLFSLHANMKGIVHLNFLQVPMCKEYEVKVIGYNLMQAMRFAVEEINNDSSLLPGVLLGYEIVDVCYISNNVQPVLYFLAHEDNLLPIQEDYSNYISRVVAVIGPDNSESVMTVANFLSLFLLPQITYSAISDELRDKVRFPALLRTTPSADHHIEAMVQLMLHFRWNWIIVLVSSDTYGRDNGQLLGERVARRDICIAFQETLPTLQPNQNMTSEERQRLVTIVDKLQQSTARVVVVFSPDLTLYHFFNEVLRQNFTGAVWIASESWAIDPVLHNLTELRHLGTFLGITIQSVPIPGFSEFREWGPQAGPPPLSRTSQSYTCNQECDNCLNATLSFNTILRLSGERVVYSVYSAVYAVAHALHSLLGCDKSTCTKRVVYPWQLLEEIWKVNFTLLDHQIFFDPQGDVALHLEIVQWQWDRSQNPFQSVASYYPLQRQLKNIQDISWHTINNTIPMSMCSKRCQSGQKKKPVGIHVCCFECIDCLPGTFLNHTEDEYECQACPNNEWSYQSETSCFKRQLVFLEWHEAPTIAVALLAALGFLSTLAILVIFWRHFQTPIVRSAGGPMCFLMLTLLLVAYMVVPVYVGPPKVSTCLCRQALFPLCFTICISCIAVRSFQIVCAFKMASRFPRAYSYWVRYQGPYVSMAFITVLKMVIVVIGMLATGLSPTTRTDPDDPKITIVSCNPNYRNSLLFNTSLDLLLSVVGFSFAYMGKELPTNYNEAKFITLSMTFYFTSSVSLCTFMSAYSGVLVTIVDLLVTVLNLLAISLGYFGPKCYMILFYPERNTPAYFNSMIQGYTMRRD
T1 sequence (Q7RTX0 21-852): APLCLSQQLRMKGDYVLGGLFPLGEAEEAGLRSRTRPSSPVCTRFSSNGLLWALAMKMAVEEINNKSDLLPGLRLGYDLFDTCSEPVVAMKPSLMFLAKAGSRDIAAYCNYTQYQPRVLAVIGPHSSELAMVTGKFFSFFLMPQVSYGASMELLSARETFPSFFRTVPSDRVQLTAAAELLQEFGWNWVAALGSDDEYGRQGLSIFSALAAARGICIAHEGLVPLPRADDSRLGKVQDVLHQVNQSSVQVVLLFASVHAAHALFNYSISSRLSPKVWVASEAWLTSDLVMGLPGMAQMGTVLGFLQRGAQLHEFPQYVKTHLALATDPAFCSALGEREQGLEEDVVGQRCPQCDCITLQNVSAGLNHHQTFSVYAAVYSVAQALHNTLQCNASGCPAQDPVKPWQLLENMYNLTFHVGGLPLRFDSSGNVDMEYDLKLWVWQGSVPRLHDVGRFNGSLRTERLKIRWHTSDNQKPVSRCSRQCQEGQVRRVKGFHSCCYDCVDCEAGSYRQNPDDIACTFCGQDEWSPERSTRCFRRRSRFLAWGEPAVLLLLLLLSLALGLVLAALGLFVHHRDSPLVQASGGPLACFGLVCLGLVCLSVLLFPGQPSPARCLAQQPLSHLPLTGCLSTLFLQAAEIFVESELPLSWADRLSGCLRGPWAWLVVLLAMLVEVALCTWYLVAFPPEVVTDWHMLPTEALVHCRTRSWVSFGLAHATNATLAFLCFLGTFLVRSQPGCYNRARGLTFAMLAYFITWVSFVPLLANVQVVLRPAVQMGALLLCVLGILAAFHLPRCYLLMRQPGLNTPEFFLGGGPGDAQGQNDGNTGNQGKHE

[3] = target: T2, heterodimeric receptor (T1R2/T1R3), TMD2 binding site (Homo sapiens, UniProt Q7RTX0+Q8TE23); test: Competition binding with [3H]-Perillartine as radioligand; settings: for Competitive inhibition with perillartine: radioligand [3H]-Perillartine; for Ki (mM): radiolabeled ligand perillartine, TMD2 binding, Table 6
T2 sequence (Q8TE23 20-839): T1 sequence (Q8TE23 20-839)
T2 sequence (Q7RTX0 21-852): T1 sequence (Q7RTX0 21-852)

[4] = target: T3, heterodimeric receptor (T1R2/T1R3), presumed VFD2 binding site (Homo sapiens, UniProt Q7RTX0+Q8TE23); test: Competition binding with [3H]-Rebaudioside B as radioligand; settings: for Competitive inhibition with RebB: radioligand [3H]-Rebaudioside B; for Ki (mM): radiolabeled ligand RebB, VFD2 binding, Table 5
T3 sequence (Q8TE23 20-839): T1 sequence (Q8TE23 20-839)
T3 sequence (Q7RTX0 21-852): T1 sequence (Q7RTX0 21-852)

human T1R2 = settings: human T1R2, intrinsic fluorescence; cited from earlier work
[5] = system: human T1R2/T1R3 heterodimers; settings: transiently transfected, fluorescent calcium biosensor; cited from earlier work
[6] = target: human T1R2/T1R3 sweet taste receptor; settings: HEK293 stably expressing T1R2/T1R3, FLIPR calcium mobilization; cited from earlier work
[7] = target: T4, heterodimeric receptor (T1R2/T1R3) (Homo sapiens, UniProt Q7RTX0+Q8TE23); test: Effect of GTP and GDP on radioligand binding; settings: for Inhibition of [3H]-Lactisole binding: radioligand [3H]-lactisole
T4 sequence (Q8TE23 20-839): T1 sequence (Q8TE23 20-839)
T4 sequence (Q7RTX0 21-852): T1 sequence (Q7RTX0 21-852)

[8] = target: human sweet taste receptor; settings: DMR assay; cited from earlier work
[9] = target: human sweet taste receptor; settings: FLIPR assay; cited from earlier work
[10] = cited from earlier work
[11] = target: T5, human T1R2/T1R3 heterodimer sweet taste receptors (Homo sapiens, UniProt Q7RTX0+Q8TE23); test: FLOWER label-free binding to stabilized receptor on microtoroid
T5 sequence (Q8TE23 20-839): T1 sequence (Q8TE23 20-839)
T5 sequence (Q7RTX0 21-852): T1 sequence (Q7RTX0 21-852)

[12] = target: T6, heterodimeric receptor (T1R2/T1R3), VFD2 and VFD3 (Homo sapiens, UniProt Q7RTX0+Q8TE23); test: Kinetic binding of [14C]-sucrose, taste bud cell membranes
T6 sequence (Q8TE23 20-839): T1 sequence (Q8TE23 20-839)
T6 sequence (Q7RTX0 21-852): T1 sequence (Q7RTX0 21-852)

bovine taste bud cells = settings: cited from earlier work
[13] = target: T7, heterodimeric receptor (T1R2/T1R3), TMD2 site (Homo sapiens, UniProt Q7RTX0+Q8TE23); test: Kinetic binding of [3H]-Perillartine, taste bud cell membranes
T7 sequence (Q8TE23 20-839): T1 sequence (Q8TE23 20-839)
T7 sequence (Q7RTX0 21-852): T1 sequence (Q7RTX0 21-852)

[14] = target: T8, heterodimeric receptor (T1R2/T1R3), presumed VFD2 site (Homo sapiens, UniProt Q7RTX0+Q8TE23); test: Kinetic binding of [3H]-Rebaudioside B, taste bud cell membranes
T8 sequence (Q8TE23 20-839): T1 sequence (Q8TE23 20-839)
T8 sequence (Q7RTX0 21-852): T1 sequence (Q7RTX0 21-852)

[15] = read-out: binding constant Kd, TMD3 open (+C20), 10 µM C20
[16] = read-out: binding constant Kd, TMD3 open (No C20)
[17] = from kinetic binding, ratio koff/kon

Compound: CC1=CC(=O)NS(=O)(=O)O1 [AceK, Acesulfame K]
Kd [1]: 100 µM
Competitive inhibition with lactisole [2]: do not compete
Competitive inhibition with perillartine [3]: high levels of inhibition
Competitive inhibition with RebB [4]: inhibited
Kd (human T1R2): 164 µM
EC50 [5]: 213 µM
EC50 [6]: 125 µM

Compound: N=C(N)NC(=O)c1nc(Cl)c(N)nc1N [Amiloride, amiloride HCL]
Ki (mM) [3]: Ambiguous
Competitive inhibition with perillartine [3]: did not show inhibition
Ki [4]: 1350 µM
Competitive inhibition with RebB [4]: positive inhibition

Compound: C=C(C)[C@@H]1CC=C(/C=N/O)CC1 [Perillartine]
Kd (human T1R2): 373 µM
EC50 [5]: 2.54 µM
EC50 [6]: 1.45 µM

Compound: C=C1C[C@@]23CC[C@H]4[C@@](C)(CCC[C@@]4(C)C(=O)O[C@@H]4O[C@H](CO)[C@@H](O)[C@H](O)[C@H]4O)[C@@H]2CC[C@]1(O[C@@H]1O[C@H](CO)[C@@H](O)[C@H](O[C@@H]2O[C@H](CO)[C@@H](O)[C@H](O)[C@H]2O)[C@H]1O[C@@H]1O[C@H](CO)[C@@H](O)[C@H](O)[C@H]1O)C3 [RebA]
EC50 [8]: 57 µM
EC50 [9]: 29 µM
EC50 [6]: 14.4 µM
Sweetness at 300 ppm [10]: 5.90

Compound: OC[C@H]1OC(O)[C@H](O)[C@@H](O)[C@@H]1O (some centres unmarked) [glucose]
Kd (bovine taste bud cells): 3400 µM

Compound: OC[C@H]1O[C@@](CO)(O[C@H]2O[C@H](CO)[C@@H](O)[C@H](O)[C@H]2O)[C@@H](O)[C@@H]1O [sucrose]
Kd (bovine taste bud cells): 1100 µM

Compound: Rebaudioside B [RebB]
Sweetness at 300 ppm [10]: 5.20

Now from value to compound, other results behind:

Inhibition of [3H]-Lactisole binding [7]: No inhibition
IC50 ([7]; read-out: IC50, inhibition of Rebaudioside B binding, radioligand [3H]-Rebaudioside B): 2150 µM
Compound: Nc1nc2c(ncn2[C@@H]2O[C@H](COP(=O)(O)OP(=O)(O)O)[C@@H](O)[C@H]2O)c(=O)[nH]1 [GDP, guanosine diphosphate]

IC50 ([7]; IC50, inhibition of Rebaudioside B binding, radioligand [3H]-Rebaudioside B): 9220 µM
IC50 ([7]; IC50, inhibition of perillartine binding, radioligand [3H]-Perillartine): 13200 µM
Inhibition of [3H]-Lactisole binding [7]: No inhibition
Compound: Nc1nc2c(ncn2[C@@H]2O[C@H](COP(=O)(O)OP(=O)(O)OP(=O)(O)O)[C@@H](O)[C@H]2O)c(=O)[nH]1 [GTP, guanosine triphosphate]

Hill slope nH ([11]; TMD3 open (No C20)): 0.22
Kd [11, 15]: 0.046 nM
Kd [11, 16]: 2.8 nM
Compound: C=C1C[C@@]23CC[C@H]4[C@@](C)(CCC[C@@]4(C)C(=O)O[C@@H]4O[C@H](CO)[C@@H](O)[C@H](O)[C@H]4O[C@@H]4O[C@H](CO)[C@@H](O)[C@H](O)[C@H]4O)[C@@H]2CC[C@]1(O[C@@H]1O[C@H](CO)[C@@H](O)[C@H](O[C@@H]2O[C@H](CO)[C@@H](O)[C@H](O)[C@H]2O)[C@H]1O[C@@H]1O[C@H](CO)[C@@H](O)[C@H](O)[C@H]1O)C3 [RebD, Rebaudioside D]
Sweetness at 300 ppm [10]: 6.15

Hill slope nH ([11]; TMD2 open (+C20)): 0.75
Hill slope nH ([11]; TMD2 open (No C20)): 0.30
Hill slope nH ([11]; TMD3 open (No C20)): 0.55
Kd ([11]; read-out: binding constant Kd, TMD2 open (+C20), 10 µM C20): 0.28 nM
Kd [11, 15]: 2.6 nM
Kd [11, 16]: 22 nM
Ki ([2]; radiolabeled ligand lactisole, TMD3 binding, Table 4): 11800 µM
Competitive inhibition with lactisole [2]: positive inhibition
Ki (mM) [3]: Ambiguous
Ki (mM) [4]: Ambiguous
Competitive inhibition with RebB [4]: ambiguous binding inhibition
Compound: C=C1C[C@@]23CC[C@H]4[C@@](C)(CCC[C@@]4(C)C(=O)O[C@@H]4O[C@H](CO)[C@@H](O)[C@H](O[C@@H]5O[C@H](CO)[C@@H](O)[C@H](O)[C@H]5O)[C@H]4O[C@@H]4O[C@H](CO)[C@@H](O)[C@H](O)[C@H]4O)[C@@H]2CC[C@]1(O[C@@H]1O[C@H](CO)[C@@H](O)[C@H](O[C@@H]2O[C@H](CO)[C@@H](O)[C@H](O)[C@H]2O)[C@H]1O[C@@H]1O[C@H](CO)[C@@H](O)[C@H](O)[C@H]1O)C3 [RebM, Rebaudioside M]
EC50 [6]: 29.5 µM
Sweetness at 300 ppm [10]: 6.55

Hill slope nH ([11]; TMD2 open (No C20)): 0.36
Hill slope nH ([11]; TMD3 open (No C20)): 0.20
Kd ([11]; binding constant Kd, TMD2 open (No C20)): 2400 nM
Kd ([11]; binding constant Kd, TMD3 open (+C20), 10 µM C20): 26 nM
Kd ([11]; binding constant Kd, TMD3 open (No C20)): 3000 nM
Compound: C=C1C[C@@]23CC[C@H]4[C@@](C)(CCC[C@@]4(C)C(=O)O[C@@H]4O[C@H](CO)[C@@H](O)[C@H](O)[C@H]4O)[C@@H]2CC[C@]1(O[C@@H]1O[C@H](CO)[C@@H](O)[C@H](O)[C@H]1O)C3 [Rubu, Rubusoside]
Sweetness at 300 ppm [10]: 3.87

Competitive inhibition with lactisole [2]: do not compete
Ki (mM) [3]: Ambiguous
Competitive inhibition with perillartine [3]: did not show inhibition
Ki (mM) [4]: Ambiguous
Competitive inhibition with RebB [4]: did not show strong inhibition
Compound: CC(C)Oc1ccc(NC(=S)NCc2ccc[nH]2)cc1 [S819, 1-((1H-pyrrol-2-yl)methyl)-3-(4-isopropoxyphenyl)thiourea]
EC50 [8]: 0.7 µM
EC50 [9]: 0.07 µM

kon ([12]; [14C]-sucrose radioligand): 0.251 M⁻¹ s⁻¹
koff ([12]; dissociation by excess cold sucrose at 60 min): 0.003105 s⁻¹
Kd [12, 17]: 12300 µM
Compound: OC[C@H]1O[C@@](CO)(O[C@H]2O[C@H](CO)[C@@H](O)[C@H](O)[C@H]2O)[C@@H](O)[C@@H]1O [[^14C]-sucrose, [^14C]-Sucrose]

kon ([13]; [3H]-Perillartine radioligand): 3071.47 M⁻¹ s⁻¹
koff ([13]; dissociation by excess cold Perillartine at 60 min): 0.008895 s⁻¹
Kd [13, 17]: 2.9 µM
Compound: [^3H]-Perillartine [[^3H]-Perrilartine]

kon ([14]; [3H]-Rebaudioside B radioligand, room temperature): 1.53 M⁻¹ s⁻¹
koff ([14]; dissociation by 1000-fold excess cold Rebaudioside B at 60 min): 0.008868 s⁻¹
Kd [14, 17]: 5800 µM
Compound: [^3H]-Rebaudioside B
